Experiments:
Type in all cases: cell-based
[1] = test system: Mouse spleen cells; test: LPS-induced murine lymphocyte proliferation in vitro; conditions: all concentrations tested (1.5 µg/mL-50 µg/mL); LPS 5 µg/ml, 48 hours
Procedure: LPS is a B-cell mitogen in mice and it is also known to induce pro-inflammatory cytokines such as TNF-α, IL-6 and IL-1β in both murine and human mononuclear cells (Cunningham, A.J., ed; Understanding Immunology 1978;Academic Press, Inc., New York, USA). Murine lymphocytes were stimulated with LPS in vitro in the absence or presence of varying concentrations of JO-4 (1.5, 2.5, 5.0, 10.0, and 50.0 µg/mL).

[2] = test system: human PBMCs; test: PHA-induced proliferation of human PBMCs; conditions: 1.25-50.0 µg/mL, 4 days
Procedure: Human PBMCs were cultured for 4 days in the absence or presence of varying concentrations of JO-4 (1.25, 2.5, 5.0, 10.0 and 50.0 µg/mL). PHA is a potent T-cell mitogen and stimulates T-cells to produce IL-2.

[3] = test system: renal carcinoma (CAKI-1) cells; test: Colorimetric MTT cytotoxicity assay, CAKI-1; conditions: Homo sapiens; CAKI-1, 72 hours
Procedure: (§1) The following materials and methods were employed in the non-limiting Examples set out below. Tumor cells: Human cervical epitheloid carcinoma (HeLa), human renal clear cell carcinoma (CAKI-1), human malignant melanoma (RPMI-7951) and mouse malignant melanoma (B16-F1) were procured from ATCC (Rockville, MD) and maintained in vitro with MEM medium (Mediatech, Inc., Herndon, VA) supplemented with 10% heat-inactivated fetal bovine serum (American Qualex, San Clemente, CA), 10mM glutamine, 100 U/ml penicillin, and 100 µg/ml streptomycin (Sigma Chemicals, Saint Louis, MO) (complete medium). […] Cell viability was assessed by trypan blue dye exclusion test and the cell number was adjusted to required concentration. Colorimetric MTT assay: Cytotoxic effects of the hypoestoxide compounds of formulas I and II (JO-4A) were determined in vitro by a colorimetric assay (Mosmann, T., J. Immunol. Methods, 65: 55-63, 1983). […] Mixing with a multichannel pipetter dissolved the dark blue crystals and the absorbance was measured at 545-650 nm using an ELISA plate reader. […] The tumors were measured with a microcaliper, and the tumor volume was calculated by the formula: Length x width x height x 0.5236 (Jungwirth, A. et al., Proc. Natl. Acad. Sci. USA, 94:5810-5813, 1997). […]

[4] = Colorimetric MTT cytotoxicity assay, HMEC; conditions: human, read-out: IC50 concentration (cytotoxicity)
[5] = Colorimetric MTT cytotoxicity assay, HUVEC; conditions: human, read-out: IC50 concentration (cytotoxicity)
Procedure: as §1

| SMILES | inhibition of LPS-induced proliferation of murine lymphocytes [1] | effect on PHA-induced proliferation of human lymphocytes [2] | IC50 [3] [µM] | CC50 at 72 h [4] [µM] | CC50 at 72 h [5] [µM] |
| --- | --- | --- | --- | --- | --- |
| C=C1C(=O)C[C@H]2C[C@@H]3O[C@@]3(C)CC[C@@H]3O[C@@]3(C)C[C@@H](OC(C)=O)[C@H]1C2(C)C [JO-4, hypoestoxide] | more than 50% | inhibitory effect |  |  |  |
| C=C1C(=O)CC2CC3OC3(C)CCC3OC3(C)CC(O)C1C2(C)C (centres unmarked) [JO-4A] |  |  | 20 to 40 | 25 to 50 | 25 to 50 |

Reference: EP0986381B1, “USE OF DITERPENES LIKE HYPOESTOXIDES FOR THE MANUFACTURE OF A MEDICAMENT FOR IMMUNOSUPPRESSION, ANTICANCER AND ANTIVIRAL TREATMENT” (Immune Modulation, Inc., priority 1997, dated 1998)
